Test results reported in PubChem BioAssay (NCI).
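Interpolation was linear, between the two tested concentrations surrounding the appropriate level; five concentrations were tested over 48 hours in 96-well plates. TGI denotes the concentration required for complete inhibition of growth.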

Assays:
Assay in all cases: inhibition of tumour cell growth, NCI panel, 48 h
[1] = system: NCI-H226 lung
[2] = system: SNB-19 CNS
[3] = system: PC-3 prostate
[4] = system: A549 NSCLC
[5] = system: HOP-62 NSCLC
[6] = system: MOLT-4 leukemia
[7] = system: SF-539 CNS
[8] = system: SF-295 CNS
[9] = system: SK-MEL-2 melanoma
[10] = system: 786-0 renal
[11] = system: M14 melanoma
[12] = system: U251 CNS
[13] = system: SW-620 colon
[14] = system: MDA-N
[15] = system: SK-MEL-5 melanoma
[16] = system: SN12C renal
[17] = system: OVCAR-8 ovarian
[18] = system: HL-60(TB) leukemia
[19] = system: SK-MEL-28 melanoma
[20] = system: SF-268 CNS
[21] = system: RXF 393 renal
[22] = system: NCI-H23 lung
[23] = system: HCT-116 colon
[24] = system: HS 578T breast
[25] = system: DU-145 prostate
[26] = system: MCF7 breast
[27] = system: NCI-H460 lung
[28] = system: KM12 colon
[29] = system: OVCAR-3 ovarian
[30] = system: MDA-MB-231 breast
[31] = system: K-562 leukemia
[32] = system: IGROV1 ovarian
[33] = system: NCI/ADR-RES ovarian
[34] = system: RPMI-8226 leukemia
[35] = system: HT29 colon
[36] = system: SR leukemia
[37] = system: BT-549 breast
[38] = system: SNB-75 CNS
[39] = system: CAKI-1 renal
[40] = system: UACC-62 melanoma
[41] = system: HCT-15 colon
[42] = system: EKVX NSCLC
[43] = system: ACHN renal
[44] = system: UACC-257 melanoma
[45] = system: HOP-92 NSCLC
[46] = system: LOX IMVI melanoma
[47] = system: A498 renal
[48] = system: COLO 205 colon
[49] = system: OVCAR-5 ovarian
[50] = system: CCRF-CEM leukemia
[51] = system: T-47D breast
[52] = system: MDA-MB-435
[53] = system: UO-31 renal
[54] = system: TK-10 renal

SMILES: CCCCCCCCCCCC[C@@H](O)[C@H]1CC[C@H]([C@H]2CC[C@H]([C@H](O)CC[C@H](O)CCCCCCCC3=C[C@H](C)OC3=O)O2)O1
- TGI [1]: 3.48 µM
- TGI [2]: 2.62 µM
- TGI [3]: 2.9 µM
- TGI [4]: 4.42 µM
- TGI [5]: 2.96 µM
- TGI [6]: > 10 µM
- TGI [7]: 3.12 µM
- TGI [8]: 3.01 µM
- TGI [9]: 2.93 µM
- TGI [10]: 5.66 µM
- TGI [11]: 3.11 µM
- TGI [12]: 5.32 µM
- TGI [13]: 5.82 µM
- TGI [14]: 4.49 µM
- TGI [15]: 4.48 µM
- TGI [16]: 8.13 µM
- TGI [17]: 4 µM
- TGI [18]: 4.17 µM
- TGI [19]: 3.6 µM
- TGI [20]: 3.32 µM
- TGI [21]: 5.9 µM
- TGI [22]: 2.31 µM
- TGI [23]: 4.42 µM
- TGI [24]: 5.48 µM
- TGI [25]: > 10 µM
- TGI [26]: 2.72 µM
- TGI [27]: 2.82 µM
- TGI [28]: 2.9 µM
- TGI [29]: 2.95 µM
- TGI [30]: 6.36 µM
- TGI [31]: > 10 µM
- TGI [32]: 3.2 µM
- TGI [33]: 3.8 µM
- TGI [34]: 9.49 µM
- TGI [35]: 3.25 µM
- TGI [36]: > 10 µM
- TGI [37]: 1.02 µM
- TGI [38]: 3.77 µM
- TGI [39]: 6.81 µM
- TGI [40]: 2.58 µM
- TGI [41]: 4.33 µM
- TGI [42]: 2.82 µM
- TGI [43]: 2.45 µM
- TGI [44]: 2.35 µM
- TGI [45]: 4.23 µM
- TGI [46]: 2.76 µM
- TGI [47]: 4.94 µM
- TGI [48]: 3.94 µM
- TGI [49]: 3.25 µM
- TGI [50]: 4.74 µM
- TGI [51]: > 10 µM
- TGI [52]: 4.05 µM
- TGI [53]: 2.16 µM
- TGI [54]: 2.65 µM
